Reference: the supplement of paper PMC4862054

Key:
Test in all cases: normalised viability (% of control), CellTiter-Blue; higher = more viable cells (about 100 = DMSO control)
CAL-120 = conditions: 100 nM; incubation time: 72 h
Method: (§1)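 DSRT, CellTiter-Blue viability, 72 h incubation. Signal is normalised to DMSO and benzethonium chloride controls. Value is the normalised response at dose 3.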

CAL-148 = conditions: 10 nM; incubation time: 72 h
Method: as §1

CAL-51 = conditions: 10 nM; incubation time: 72 h
Method: as §1

CAL-85-1 = conditions: 10 nM; incubation time: 72 h
Method: as §1

DU-4475 = conditions: 10 nM; incubation time: 72 h
Method: as §1

HCC1599 = conditions: 100 nM; incubation time: 72 h
Method: as §1

HCC1937 = conditions: 100 nM; incubation time: 72 h
Method: as §1

Hs578T = conditions: 100 nM; incubation time: 72 h
Method: as §1

MDA-MB-231 = conditions: 100 nM; incubation time: 72 h
Method: as §1

MDA-MB-453 = conditions: 10 nM; incubation time: 72 h
Method: as §1

MDA-MB-468 = conditions: 100 nM; incubation time: 72 h
Method: as §1

SK-BR-3 = conditions: 100 nM; incubation time: 72 h
Method: as §1

Compound	normalised viability (CAL-120) [%]	normalised viability (CAL-148) [%]	normalised viability (CAL-51) [%]	normalised viability (CAL-85-1) [%]	normalised viability (DU-4475) [%]	normalised viability (HCC1599) [%]	normalised viability (HCC1937) [%]	normalised viability (Hs578T) [%]	normalised viability (MDA-MB-231) [%]	normalised viability (MDA-MB-453) [%]	normalised viability (MDA-MB-468) [%]	normalised viability (SK-BR-3) [%]
CC(C)(C)c1cnc(CSc2cnc(NC(=O)C3CCNCC3)s2)o1 [SNS-032]	69	89.1	117	96.2	101	78.6	53.2	52.8	69.5	99.8	96.9	62.1
Cn1cnc2c(F)c(Nc3ccc(Br)cc3Cl)c(C(=O)NOCCO)cc21 [Selumetinib]	82.8	91.6	113	98.6	93.8	96.6	97.9	68.4	61.5	108	92.5	65.7
Nc1nc2[nH]cnc2c(=S)[nH]1 [Thioguanine]	96.8	109	108	102	105	103	98.5	89.9	89.3	109	107	87.5
